Test results from patent US20250353891A1 (MEDIMMUNE LIMITED, priority 2022, published 2025).
Starred links: 1 amine or outer side, 2 acyl side, 3 side chain; linkers in the order of their positions; H or OH if unused. Non-standard residues stand in square brackets, D forms with d. Residues, ends and D or L forms follow the SMILES beside them. Groups on a side chain read outwards from the residue. *: point of attachment. Dip = N[C@H](C(=O)O)C(c1ccccc1)c1ccccc1; γGlu = O=C(O)[C@H](CCC(=O)[*:2])N[*:1]; Stearoyl = CCCCCCCCCCCCCCCCCC(=O)*; αMeF = C[C@](N)(Cc1ccccc1)C(=O)O; PEG2 = NCCOCCOCCC(=O)O; Aib = CC(C)(N)C(=O)O

Experiments:
[1] = target: human GLP-1 receptor (hGLP-1R) (Homo sapiens, UniProt P43220); experiment: cAMP production (HTRF) in CHO cells expressing hGLP-1R; type: cell-based; set-up: expressed in transfected cells; conditions: for EC50: Table 6, peptides modified at position 17, cAMP in CHO hGLP-1R cells, geometric mean, read-out: hGLP-1R EC50; for % Relative Potency Ratio: Table 6, % GLP-1R activity relative to GLP-1 / % GlucR activity relative to glucagon
Sequence of human GLP-1 receptor (hGLP-1R) (P43220 24-463): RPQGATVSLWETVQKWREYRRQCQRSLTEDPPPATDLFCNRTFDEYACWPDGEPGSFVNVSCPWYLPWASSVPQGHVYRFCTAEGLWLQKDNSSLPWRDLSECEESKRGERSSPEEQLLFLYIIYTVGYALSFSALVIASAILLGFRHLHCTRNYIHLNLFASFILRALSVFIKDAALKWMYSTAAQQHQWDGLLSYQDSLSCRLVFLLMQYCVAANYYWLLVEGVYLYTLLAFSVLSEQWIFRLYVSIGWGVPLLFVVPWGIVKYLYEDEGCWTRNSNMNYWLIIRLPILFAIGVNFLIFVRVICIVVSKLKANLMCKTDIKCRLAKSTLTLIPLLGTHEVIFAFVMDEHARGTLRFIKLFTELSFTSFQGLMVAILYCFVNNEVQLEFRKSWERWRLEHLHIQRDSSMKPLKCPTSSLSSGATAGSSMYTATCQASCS
Summary of the method: (§1)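 Cells were resuspended in assay buffer at batch-optimized density, typically 1×10^5 cells/mL for hGLP-1R and 2×10^5 cells/mL for hGCGR. After 30 min incubation at room temperature with compound, cAMP was measured by two-step HTRF. EC50 values came from 4-parameter logistic fits of % Delta F.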

[2] = target: human glucagon receptor (hGCGR) (Homo sapiens, UniProt P47871); experiment: cAMP production (HTRF) in CHO cells expressing hGCGR; type: cell-based; set-up: expressed in transfected cells; conditions: Table 6, peptides modified at position 17; cAMP in CHO hGCGR cells; geometric mean; read-out: hGluc-R EC50
Sequence of human glucagon receptor (hGCGR) (P47871 26-477): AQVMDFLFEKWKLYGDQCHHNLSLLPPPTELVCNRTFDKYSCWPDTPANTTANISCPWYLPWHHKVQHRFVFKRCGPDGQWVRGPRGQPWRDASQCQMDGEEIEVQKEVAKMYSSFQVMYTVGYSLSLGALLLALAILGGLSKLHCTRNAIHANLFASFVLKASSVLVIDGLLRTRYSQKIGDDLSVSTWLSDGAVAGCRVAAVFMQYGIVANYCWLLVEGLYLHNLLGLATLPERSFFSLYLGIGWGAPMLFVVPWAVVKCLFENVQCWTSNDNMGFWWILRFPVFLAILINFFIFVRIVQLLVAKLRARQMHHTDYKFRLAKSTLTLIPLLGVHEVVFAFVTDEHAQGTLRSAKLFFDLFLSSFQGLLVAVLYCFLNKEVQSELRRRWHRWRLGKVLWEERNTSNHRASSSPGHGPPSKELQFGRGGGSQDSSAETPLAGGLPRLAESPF
Summary of the method: as §1

## CCCCCCCCCCCCCCCCCC(=O)NCCOCCOCCC(=O)NCCOCCOCCC(=O)N[C@@H](CCC(=O)N[C@@H](CCC(=O)NCCCC[C@H](NC(=O)[C@H](CO)NC(=O)[C@H](CC(=O)O)NC(=O)[C@H](CC(C)C)NC(=O)[C@@H](NC(=O)[C@H](CCCCN)NC(=O)[C@H](CO)NC(=O)[C@@H](NC(=O)[C@H](CC(=O)O)NC(=O)[C@H](CO)NC(=O)[C@@H](NC(=O)[C@](C)(Cc1ccccc1)NC(=O)[C@H](CO)NC(=O)CNC(=O)[C@H](CCC(N)=O)NC(=O)[C@H](CO)NC(=O)[C@@H](N)Cc1c[nH]cn1)[C@@H](C)O)C(C)C)C(c1ccccc1)c1ccccc1)C(=O)N[C@@H](C)C(=O)N[C@@H](C)C(=O)N[C@@H](CCC(N)=O)C(=O)N[C@@H](CC(=O)O)C(=O)N[C@@](C)(Cc1ccccc1)C(=O)N[C@H](C(=O)N[C@@H](CCC(=O)O)C(=O)NC(C)(C)C(=O)N[C@H](C(=O)N[C@H](C(=O)N[C@@H](CC(N)=O)C(=O)N[C@H](C(N)=O)[C@@H](C)O)[C@@H](C)CC)[C@@H](C)CC)C(C)C)C(=O)O)C(=O)O [Peptide 59] (H-HSQGS[αMeF]TSDVSK[Dip]LDSK([γGlu-γGlu-PEG2-PEG2-Stearoyl])AAQD[αMeF]VE[Aib]IINT-NH2; N-terminus assumed)
[1]
  EC50: 6.18 pM
  % Relative Potency Ratio: 9.1
[2]
  EC50: 0.0284 nM

## CCCCCCCCCCCCCCCCCC(=O)NCCOCCOCCC(=O)N[C@@H](CCC(=O)NCCOCCOCCC(=O)N[C@@H](CCC(=O)NCCCC[C@H](NC(=O)[C@H](CO)NC(=O)[C@H](CC(=O)O)NC(=O)[C@H](CC(C)C)NC(=O)[C@@H](NC(=O)[C@H](CCCCN)NC(=O)[C@H](CO)NC(=O)[C@@H](NC(=O)[C@H](CC(=O)O)NC(=O)[C@H](CO)NC(=O)[C@@H](NC(=O)[C@](C)(Cc1ccccc1)NC(=O)[C@H](CO)NC(=O)CNC(=O)[C@H](CCC(N)=O)NC(=O)[C@H](CO)NC(=O)[C@@H](N)Cc1c[nH]cn1)[C@@H](C)O)C(C)C)C(c1ccccc1)c1ccccc1)C(=O)N[C@@H](C)C(=O)N[C@@H](C)C(=O)N[C@@H](CCC(N)=O)C(=O)N[C@@H](CC(=O)O)C(=O)N[C@@](C)(Cc1ccccc1)C(=O)N[C@H](C(=O)N[C@@H](CCC(=O)O)C(=O)NC(C)(C)C(=O)N[C@H](C(=O)N[C@H](C(=O)N[C@@H](CC(N)=O)C(=O)N[C@H](C(N)=O)[C@@H](C)O)[C@@H](C)CC)[C@@H](C)CC)C(C)C)C(=O)O)C(=O)O [Peptide 60] (H-HSQGS[αMeF]TSDVSK[Dip]LDSK([γGlu-PEG2-γGlu-PEG2-Stearoyl])AAQD[αMeF]VE[Aib]IINT-NH2; N-terminus assumed)
[1]
  EC50: 5.16 pM
  % Relative Potency Ratio: 8.1
[2]
  EC50: 0.0211 nM

## CCCCCCCCCCCCCCCCCC(=O)N[C@@H](CCC(=O)NCCOCCOCCC(=O)N[C@@H](CCC(=O)NCCOCCOCCC(=O)NCCCC[C@H](NC(=O)[C@H](CO)NC(=O)[C@H](CC(=O)O)NC(=O)[C@H](CC(C)C)NC(=O)[C@@H](NC(=O)[C@H](CCCCN)NC(=O)[C@H](CO)NC(=O)[C@@H](NC(=O)[C@H](CC(=O)O)NC(=O)[C@H](CO)NC(=O)[C@@H](NC(=O)[C@](C)(Cc1ccccc1)NC(=O)[C@H](CO)NC(=O)CNC(=O)[C@H](CCC(N)=O)NC(=O)[C@H](CO)NC(=O)[C@@H](N)Cc1c[nH]cn1)[C@@H](C)O)C(C)C)C(c1ccccc1)c1ccccc1)C(=O)N[C@@H](C)C(=O)N[C@@H](C)C(=O)N[C@@H](CCC(N)=O)C(=O)N[C@@H](CC(=O)O)C(=O)N[C@@](C)(Cc1ccccc1)C(=O)N[C@H](C(=O)N[C@@H](CCC(=O)O)C(=O)NC(C)(C)C(=O)N[C@H](C(=O)N[C@H](C(=O)N[C@@H](CC(N)=O)C(=O)N[C@H](C(N)=O)[C@@H](C)O)[C@@H](C)CC)[C@@H](C)CC)C(C)C)C(=O)O)C(=O)O [Peptide 61] (H-HSQGS[αMeF]TSDVSK[Dip]LDSK([PEG2-γGlu-PEG2-γGlu-Stearoyl])AAQD[αMeF]VE[Aib]IINT-NH2; N-terminus assumed)
[1]
  EC50: 4.12 pM
  % Relative Potency Ratio: 4.6
[2]
  EC50: 0.00955 nM
